# From ChEMBL document CHEMBL3885861, “Open TG-GATES”
# Species on record: Rattus norvegicus
# Assay: Open TG-GATES - Regimen: Daily Repeat
# Type: toxicity, organism-based, Sprague-Dawley
# Parameters: regimen Daily Repeat, gender Male, age 6 weeks
# Settings: in vivo, po, 0 mg/kg, route gavage, dose level Control; for APTT / Bas / Eos / Fbg / Hb / Ht / Lym / MCH / MCHC / MCV / Mono / Neu / PT / Plat / RBC / Ret / WBC: tissue Blood
# [1] = 72 h, tissue Kidney, time 3 day
# [2] = 72 h, tissue Plasma, time 3 day
smiles,measurement,setting,value
C[C@H]1C(=O)O[C@@H]2CCN3CC=C(COC(=O)[C@](C)(O)[C@]1(C)O)[C@H]23 [MONOCROTALINE],TERMINAL_BW,"72 h, time 3 day",230.9 g
same,APTT,"72 h, time 3 day",21.2 s
same,Bas,"72 h, time 3 day",0%
same,Eos,"72 h, time 3 day",0.6%
same,Fbg,"72 h, time 3 day",311.8 mg/dL
same,Hb,"72 h, time 3 day",13.5 g/dL
same,Ht,"72 h, time 3 day",39.5%
same,Lym,"72 h, time 3 day",83.8%
same,MCH,"72 h, time 3 day",21.5 pg
same,MCHC,"72 h, time 3 day",34.3%
same,MCV,"72 h, time 3 day",62.6 fL
same,Mono,"72 h, time 3 day",2%
same,Neu,"72 h, time 3 day",12.4%
same,PT,"72 h, time 3 day",15.8 s
same,Plat,"72 h, time 3 day",119.6 x10_4/uL
same,RBC,"72 h, time 3 day",631.2 x10_4/ul
same,Ret,"72 h, time 3 day",6.9%
same,WBC,"72 h, time 3 day",91.2 x10_2/uL
same,KIDNEY_L,[1],1 g
same,KIDNEY_R,[1],1 g
same,KIDNEY_TOTAL,[1],2.1 g
same,LIVER,"72 h, tissue Liver, time 3 day",11 g
same,A/G,[2],1.2
same,ALP,[2],1771.6 IU/L
same,ALT,[2],40.2 IU/L
same,AST,[2],70 IU/L
same,BUN,[2],18.2 mg/dL
same,CRE,[2],0.2 mg/dL
same,Ca,[2],10.6 mg/dL
same,Cl,[2],105.6 meq/L
same,DBIL,[2],0.004 mg/dL
same,GLC,[2],191.4 mg/dL
same,IP,[2],6.9 mg/dL
same,K,[2],4.6 meq/L
same,LDH,[2],222.4 IU/L
same,Na,[2],142.2 meq/L
same,PL,[2],164 mg/dL
same,RALB,[2],3.1 g/dL
same,TBIL,[2],0.008 mg/dL
same,TC,[2],83.8 mg/dL
same,TG,[2],119 mg/dL
same,TP,[2],5.6 g/dL
same,gamma-GTP,[2],1.2 IU/L
same,TERMINAL_BW,"[…], time 7 day",267 g
same,TERMINAL_BW,"[…], time 14 day",315.5 g
same,TERMINAL_BW,"[…], time 28 day",368.8 g
same,APTT,"[…], time 7 day",21 s
same,Bas,"[…], time 7 day",0%
same,Eos,"[…], time 7 day",0.8%
same,Fbg,"[…], time 7 day",309.8 mg/dL
same,Hb,"[…], time 7 day",13.3 g/dL
same,Ht,"[…], time 7 day",38.4%
same,Lym,"[…], time 7 day",80.6%
same,MCH,"[…], time 7 day",20.8 pg
same,MCHC,"[…], time 7 day",34.7%
same,MCV,"[…], time 7 day",60.2 fL
same,Mono,"[…], time 7 day",2.6%
same,Neu,"[…], time 7 day",15.2%
same,PT,"[…], time 7 day",16.6 s
same,Plat,"[…], time 7 day",111.7 x10_4/uL
same,RBC,"[…], time 7 day",638.2 x10_4/ul
same,Ret,"[…], time 7 day",6.1%
same,WBC,"[…], time 7 day",108.8 x10_2/uL
same,APTT,"[…], time 14 day",20.5 s
same,Bas,"[…], time 14 day",0%
same,Eos,"[…], time 14 day",1%
same,Fbg,"[…], time 14 day",323.2 mg/dL
same,Hb,"[…], time 14 day",14.1 g/dL
same,Ht,"[…], time 14 day",39.6%
same,Lym,"[…], time 14 day",78.4%
same,MCH,"[…], time 14 day",20.7 pg
same,MCHC,"[…], time 14 day",35.6%
same,MCV,"[…], time 14 day",58.1 fL
same,Mono,"[…], time 14 day",2.8%
same,Neu,"[…], time 14 day",16.8%
